Laboratory results: patent US12581252B2, “Substituted pyrrolo[3,4-b]pyridines as PI3K-α inhibitors” (Relay Therapeutics, Inc., priority 2020, dated 2026)

Molecular target: H1047R PIK3CA enzyme (Homo sapiens, UniProt P42336, H1047R)
Assay: ADP-Glo Biochemical PIK3CA Kinase Assay

Sequence of H1047R PIK3CA enzyme (P42336 whole entry H1047R): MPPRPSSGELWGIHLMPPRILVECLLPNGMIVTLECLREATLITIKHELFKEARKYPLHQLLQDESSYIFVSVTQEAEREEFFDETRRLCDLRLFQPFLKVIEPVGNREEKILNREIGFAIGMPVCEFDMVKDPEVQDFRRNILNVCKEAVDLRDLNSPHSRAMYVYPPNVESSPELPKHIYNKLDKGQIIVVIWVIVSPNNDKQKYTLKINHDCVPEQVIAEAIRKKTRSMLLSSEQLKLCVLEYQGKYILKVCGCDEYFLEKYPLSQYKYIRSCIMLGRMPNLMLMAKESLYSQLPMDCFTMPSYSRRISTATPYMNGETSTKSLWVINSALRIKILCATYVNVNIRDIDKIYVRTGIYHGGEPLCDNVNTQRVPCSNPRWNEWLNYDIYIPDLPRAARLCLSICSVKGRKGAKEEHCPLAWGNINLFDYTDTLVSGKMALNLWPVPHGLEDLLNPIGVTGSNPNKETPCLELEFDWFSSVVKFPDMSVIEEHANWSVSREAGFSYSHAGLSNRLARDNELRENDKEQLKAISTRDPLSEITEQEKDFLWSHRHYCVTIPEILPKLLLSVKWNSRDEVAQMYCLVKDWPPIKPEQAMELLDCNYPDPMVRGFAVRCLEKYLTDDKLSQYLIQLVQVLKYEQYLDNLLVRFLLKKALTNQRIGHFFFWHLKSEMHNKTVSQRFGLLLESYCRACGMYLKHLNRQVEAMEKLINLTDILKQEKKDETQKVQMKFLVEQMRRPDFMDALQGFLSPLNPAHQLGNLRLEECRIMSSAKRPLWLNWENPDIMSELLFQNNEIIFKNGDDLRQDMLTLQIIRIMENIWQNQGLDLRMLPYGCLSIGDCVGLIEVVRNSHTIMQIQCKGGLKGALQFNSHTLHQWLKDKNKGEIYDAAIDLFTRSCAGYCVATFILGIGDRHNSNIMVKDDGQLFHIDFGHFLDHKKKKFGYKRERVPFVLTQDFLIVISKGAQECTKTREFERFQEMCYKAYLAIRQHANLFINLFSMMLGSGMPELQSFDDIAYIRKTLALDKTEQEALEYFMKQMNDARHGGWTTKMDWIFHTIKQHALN
Sequence of H1047R PIK3CA enzyme (P27986 whole entry partner): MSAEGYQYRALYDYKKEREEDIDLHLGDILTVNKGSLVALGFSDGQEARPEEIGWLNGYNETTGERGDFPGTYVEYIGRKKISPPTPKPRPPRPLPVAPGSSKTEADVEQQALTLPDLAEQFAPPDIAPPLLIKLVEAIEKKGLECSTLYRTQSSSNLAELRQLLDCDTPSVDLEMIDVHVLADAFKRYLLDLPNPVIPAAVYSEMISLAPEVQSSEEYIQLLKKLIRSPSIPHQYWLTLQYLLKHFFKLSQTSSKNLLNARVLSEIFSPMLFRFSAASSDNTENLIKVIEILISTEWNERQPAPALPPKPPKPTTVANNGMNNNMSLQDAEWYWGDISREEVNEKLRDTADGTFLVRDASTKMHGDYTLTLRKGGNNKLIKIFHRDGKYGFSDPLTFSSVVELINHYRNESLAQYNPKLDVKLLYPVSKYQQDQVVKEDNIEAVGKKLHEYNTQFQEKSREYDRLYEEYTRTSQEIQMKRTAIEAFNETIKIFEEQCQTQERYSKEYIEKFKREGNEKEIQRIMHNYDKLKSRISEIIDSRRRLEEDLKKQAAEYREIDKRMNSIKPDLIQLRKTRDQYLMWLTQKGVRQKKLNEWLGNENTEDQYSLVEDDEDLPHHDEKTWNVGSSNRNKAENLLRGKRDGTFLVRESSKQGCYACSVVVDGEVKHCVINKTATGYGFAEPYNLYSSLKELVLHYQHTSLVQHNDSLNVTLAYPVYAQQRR

IC50 [µM] | Structure (SMILES)
10 to 100 | N[C@H]1CCC[C@H](C(=O)Nc2cc(-c3ccc4ncnn4c3)cc3c2C(c2cc(F)ccc2Cl)NC3=O)C1 (mixture of isomers) [Compound I-1845]
0.1 to 0.5 | O=C1NC(c2cc(F)ccc2Cl)c2c(NC(=O)C34CC5CC(F)(CC(F)(C5)C3)C4)cccc21 (stereo not drawn) [Compound I-1180]
≤ 0.1 | O=C(Nc1cc(-c2ccc(=O)n(C3CC3)c2)nc2c1C(c1cc(F)ccc1Cl)NC2=O)c1cc(F)cc(C(F)(F)F)c1 (stereo not drawn) [Compound I-647]
1 to 10 | Cc1ccccc1C1NS(=O)(=O)c2cccc(NC(=O)c3cc(F)cc(C(F)(F)F)c3)c21 (stereo not drawn) [Compound I-535]
10 to 100 | O=C1N[C@@H](c2cc(F)ccc2Cl)c2c(NC(=O)N3CCOCC(F)(F)C3)cc(Br)cc21 (single isomer, unassigned) [Compound I-2242]
1 to 10 | O=C1N[C@H](c2cc(F)ccc2Cl)c2c(NC(=O)N3C[C@@](O)(C(F)(F)F)c4cc(F)ccc43)cc(C(F)F)cc21 (single isomer, unassigned) [Compound I-2577]
10 to 100 | O=C1NC(c2cc(F)ccc2Cl)c2c(Nc3ncnc4ccccc34)cc(Br)cc21 (stereo not drawn) [Compound I-864]
0.5 to 1 | O=C(Nc1cc(Br)cc2c1C(c1cc(F)ccc1Cl)NC2=O)c1cccc(OC(F)(F)F)c1 (stereo not drawn) [Compound I-514]
10 to 100 | O=C1NC(c2cc(F)ccc2Cl)c2c(Cn3ccccc3=O)cc(-c3ccc4ncnn4c3)cc21 (stereo not drawn) [Compound I-1980]
1 to 10 | O=C(Nc1cc(Br)cc2c1[C@@H](c1cc(Cl)cc(F)c1F)NC2=O)c1cc(F)cc(C(F)(F)F)c1 [Compound I-787]
≤ 0.1 | CC(O)(c1ccncc1)c1cc(NC(=O)c2cc(F)cc(C(F)(F)F)c2)c2c(c1)C(=O)NC2c1cc(F)ccc1Cl (stereo not drawn) [Compound I-1403]
0.5 to 1 | O=C1NC(c2cc(F)ccc2Cl)c2c(NC(=O)c3cccc4c(Cl)c[nH]c34)cc(Br)cc21 (stereo not drawn) [Compound I-1271]
0.1 to 0.5 | Cn1cc(-c2cc(NC(=O)c3cc(F)cc(Cl)c3)c3c(n2)C(=O)NC3c2cc(F)ccc2Cl)cn1 (stereo not drawn) [Compound I-379]
10 to 100 | Cc1ccccc1C1NC(=O)c2cccc(Nc3nc(C)c4ccccc4n3)c21 (stereo not drawn) [Compound I-28]
≤ 0.1 | [2H]c1nc2ccc(-c3cc(NC(=O)c4cc(F)cc(C(F)(F)F)c4)c4c(c3)C(=O)N[C@H]4c3cc(F)ccc3Cl)cn2n1 (stereo in doubt) [Compound I-1785]
≤ 0.1 | O=C(Nc1cc(NC2COC2)cc2c1C(c1cc(F)ccc1Cl)NC2=O)c1cc(F)cc(C(F)(F)F)c1 (stereo not drawn) [Compound I-613]
10 to 100 | CC(C)(O)CNc1cc(NC(=O)c2cc(F)cc(C(F)(F)F)c2)c2c(c1)C(=O)N[C@H]2c1cc(F)ccc1Cl [Compound I-899]
10 to 100 | Cc1ccccc1C1NC(=O)c2cccc(NC(=O)c3nc(C)c4ccc(Cl)cn34)c21 (stereo not drawn) [Compound I-285]
1 to 10 | O=C(Nc1cc(-c2ccc3nc(Cl)nn3c2)cc2c1[C@@H](c1cc(F)ccc1Cl)NC2=O)c1cc(F)cc(C(F)(F)F)c1 [Compound I-1692]
10 to 100 | O=C1CCC[C@@H]([C@@H]2NC(=O)c3cccc(NC(=O)c4cc(F)cc(C(F)(F)F)c4)c32)C1 (single isomer, unassigned) [Compound I-2255]
1 to 10 | C[C@@H](C#N)Cn1cc(-c2cc(NC(=O)N3C[C@@H](O)c4cc(F)ccc43)c3c(c2)C(=O)N[C@@H]3c2cc(F)ccc2Cl)cn1 (single isomer, unassigned) [Compound I-2505]

IC50 [µM] | Structure (SMILES)
1 to 10 | O=C(Nc1cc(-c2ccc3nc(C(F)F)cn3c2)cc2c1[C@@H](c1cc(F)ccc1Cl)NC2=O)c1cc(F)cc(C(F)(F)F)c1 [Compound I-1928]
≤ 0.1 | O=C(Nc1cc(-c2ccc3nncn3c2)cc2c1C(c1cc(F)ccc1Cl)NC2=O)c1cc(F)cc(C(F)(F)F)c1 (stereo not drawn) [Compound I-821]
0.5 to 1 | O=C(Nc1ccnc2c1C(c1ccccc1Cl)NC2=O)c1cc(F)c(F)c(Cl)c1 (stereo not drawn) [Compound I-550]
0.1 to 0.5 | O=C(Nc1ccnc2c1C(c1cc(F)ccc1Cl)NC2=O)c1cc(F)cc(C(F)(F)F)c1 (stereo not drawn) [Compound I-305]
0.1 to 0.5 | O=C(Nc1cc(-c2ccc3nnc(Cl)n3c2)cc2c1[C@@H](c1cc(F)ccc1Cl)NC2=O)c1cc(F)cc(C(F)(F)F)c1 [Compound I-1676]
1 to 10 | Cc1cc(Cl)ccc1C1NC(=O)c2cccc(NC(=O)c3nsc4ccccc34)c21 (stereo not drawn) [Compound I-133]
0.5 to 1 | O=C1N[C@H](c2cc(F)ccc2Cl)c2c(NC(=O)N3C[C@@H](O)c4cc(F)ccc43)cc(-n3cccn3)cc21 (single isomer, unassigned) [Compound I-2365]
1 to 10 | O=C(Nc1cc(Br)cc2c1C(c1cc(F)ccc1Cl)NC2=O)c1cc(F)cc(CC2CCC2)c1 (stereo not drawn) [Compound I-1350]
1 to 10 | Cc1cc2ncnn2cc1-c1cc(NC(=O)c2cc(F)cc(C(F)(F)F)c2)c2c(c1)C(=O)N[C@@H]2c1cc(F)ccc1Cl [Compound I-1873]
0.1 to 0.5 | O=C1NC[C@H](c2cc(NC(=O)c3cc(F)cc(C(F)(F)F)c3)c3c(c2)C(=O)N[C@@H]3c2cc(F)ccc2Cl)O1 (single isomer, unassigned) [Compound I-1558]
10 to 100 | O=C1NC(c2cc(F)ccc2Cl)c2c(NC(=O)N3CCC3c3ccccc3)cccc21 (stereo not drawn) [Compound I-2321]
≤ 0.1 | CC(O)(c1cc(NC(=O)c2cc(F)cc(C(F)(F)F)c2)c2c(c1)C(=O)NC2c1cc(F)ccc1Cl)c1ccccn1 (stereo not drawn) [Compound I-1188]
≤ 0.1 | O=C(Nc1cc(N2CC3(COC3)C2)cc2c1C(c1cc(F)ccc1Cl)NC2=O)c1cc(F)cc(C(F)(F)F)c1 (stereo not drawn) [Compound I-729]
10 to 100 | O=C1NC(c2cc(F)ccc2Cl)c2c(NC(=O)N3CCn4c(nnc4C(F)(F)F)C3)cccc21 (stereo not drawn) [Compound I-2111]
0.1 to 0.5 | Cc1ccccc1[C@@H]1NC(=O)c2nccc(NC(=O)N3CCc4ccc(F)cc43)c21 [Compound I-246]
≤ 0.1 | O=C(Nc1cc(N2CCC(F)(F)CC2)nc2c1C(c1cc(F)ccc1Cl)NC2=O)c1cc(F)cc(C(F)(F)F)c1 (stereo not drawn) [Compound I-539]
0.1 to 0.5 | O=C(Nc1cc(-c2ccc3ncnn3c2)cc2c1[C@H](c1cc(F)ccc1Cl)NC2=O)c1cc(F)cc(OC(F)F)c1 (stereo in doubt) [Compound I-1169]
1 to 10 | O=C(Nc1cccc2c1C(N1CCC(F)(F)CC1)NC2=O)c1cc(F)cc(C(F)(F)F)c1 (stereo not drawn) [Compound I-2077]
10 to 100 | O=C1NC(c2cc(F)ccc2Cl)c2c(NC(=O)c3csc4cocc34)cccc21 (stereo not drawn) [Compound I-2301]
10 to 100 | Cc1ccccc1C1NC(=O)c2cccc(NC(=O)c3cnc(OC(C)C)c(F)c3)c21 (stereo not drawn) [Compound I-109]
≤ 0.1 | O=C(NCC(F)F)Nc1cc(NC(=O)c2cc(F)cc(C(F)(F)F)c2)c2c(c1)C(=O)NC2c1cc(F)ccc1Cl (stereo not drawn) [Compound I-510]

IC50 [µM] | Structure (SMILES)
10 to 100 | O=C1NC(c2cc(F)ccc2Cl)c2ccc(-c3ccc4ncnn4c3)cc21 (stereo not drawn) [Compound I-1775]
≤ 0.1 | O=C(Nc1cc(-c2cc(F)c3ncnn3c2)cc2c1[C@H](c1cc(F)ccc1Cl)NC2=O)c1cc(F)cc(C(F)(F)F)c1 [Compound I-1704]
10 to 100 | O=C1N[C@H](c2cc(F)ccc2Cl)c2c(NC(=O)[C@@H]3CCCCN3)cc(-c3ccc4ncnn4c3)cc21 [Compound I-2146]
10 to 100 | CNc1cc(C(F)(F)F)cc(C(=O)Nc2cccc3c2C(c2cc(F)ccc2Cl)NC3=O)n1 (stereo not drawn) [Compound I-839]
≤ 0.1 | O=C(Nc1cc(-c2ccc3ncnn3n2)cc2c1C(c1cc(F)ccc1Cl)NC2=O)c1cc(F)cc(C(F)(F)F)c1 (stereo not drawn) [Compound I-1458]
0.1 to 0.5 | NCCOc1cc(NC(=O)c2cc(F)cc(C(F)(F)F)c2)c2c(c1)C(=O)NC2c1cc(F)ccc1Cl (stereo not drawn) [Compound I-1298]
1 to 10 | O=C1NC(c2cc(F)ccc2Cl)c2c(NC(=O)C3CCCc4ccccc43)cc(Br)cc21 (stereo not drawn) [Compound I-631]
10 to 100 | O=C1N[C@H](c2cc(F)ccc2Cl)c2c(NC(=O)N3C[C@H](CO)[C@@H](C(F)(F)F)C3)cccc21 (single isomer, unassigned) [Compound I-2278]
0.5 to 1 | CC(C)(CN)n1cc(-c2cc(NC(=O)N3C[C@](O)(C(F)(F)F)c4cc(F)ccc43)c3c(c2)C(=O)N[C@@H]3c2cc(F)ccc2Cl)cn1 (single isomer, unassigned) [Compound I-2650]
1 to 10 | O=C1N[C@@H](c2cc(F)ccc2Cl)c2c(NC(=O)N3C[C@](O)(C(F)F)c4cc(F)ccc43)cccc21 (single isomer, unassigned) [Compound I-2557]
≤ 0.1 | O=C1N[C@H](c2cc(F)ccc2Cl)c2c(NC(=O)N3C[C@](O)(C(F)(F)F)c4cc(F)ccc43)cc(F)cc21 (single isomer, unassigned) [Compound I-2631]
≤ 0.1 | CCCCC(C)(O)c1cc(NC(=O)c2cc(F)cc(C(F)(F)F)c2)c2c(c1)C(=O)NC2c1cc(F)ccc1Cl (stereo not drawn) [Compound I-1186]
≤ 0.1 | O=C(Nc1cc(-c2ccn3ncnc3c2)cc2c1[C@H](c1cc(F)ccc1Cl)NC2=O)c1cc(F)cc(C(F)(F)F)c1 (stereo in doubt) [Compound I-1597]
0.5 to 1 | CC(=O)c1cc(NC(=O)c2nsc3ccccc23)c2c(c1)C(=O)NC2c1cc(F)ccc1Cl (stereo not drawn) [Compound I-135]
10 to 100 | C[C@@]1(O)CN(C(=O)Nc2cccc3c2[C@H](c2cc(F)ccc2Cl)NC3=O)c2ccccc21 (single isomer, unassigned) [Compound I-2206]
≤ 0.1 | N#Cc1ccc2c(c1)CCCN2c1cc(NC(=O)c2cc(F)cc(C(F)(F)F)c2)c2c(c1)C(=O)NC2c1cc(F)ccc1Cl (stereo not drawn) [Compound I-1262]
10 to 100 | O=C1NC(c2cc(F)ccc2Cl)c2c(NC(=O)N3CCc4ccncc43)cccc21 (stereo not drawn) [Compound I-2182]
≤ 0.1 | O=C(Nc1cc(-c2cn3ncnc3cc2F)cc2c1[C@H](c1cc(F)ccc1Cl)NC2=O)c1cc(F)cc(C(F)(F)F)c1 (stereo in doubt) [Compound I-1702]
≤ 0.1 | Nc1nc2cc(-c3cc(NC(=O)c4cc(F)cc(C(F)(F)F)c4)c4c(c3)C(=O)NC4c3cc(F)ccc3Cl)ccn2n1 (stereo not drawn) [Compound I-1370]
≤ 0.1 | CCn1cc(-c2cc(NC(=O)c3cc(F)cc(C(F)(F)F)c3)c3c(n2)C(=O)N[C@H]3c2cc(F)ccc2Cl)ccc1=O [Compound I-615]
1 to 10 | O=C(Nc1cc(Br)cc2c1C(c1cc(F)ccc1Cl)NC2=O)c1ccc(Cl)cc1 (stereo not drawn) [Compound I-527]
